These results are taken from ChEMBL document CHEMBL4043140, “Synthesis of different heterocycles-linked chalcone conjugates as cytotoxic agents and tubulin polymerization inhibitors” (Bioorg Med Chem, 2017).

For one experiment, the system named is HCT-116. As to the kind of experiment: Antiproliferative activity against human HCT116 cells after 48 hrs by MTT assay. The following applies: HCT-116, 48 h. The class given is functional, cell-based. A general note: Tetrazolium assays rely on reduction of a dye to a coloured formazan, in cell work by metabolically active cells.
For the next experiment, the system named is HCT-15. As to the kind of experiment: Antiproliferative activity against human HCT15 cells after 48 hrs by MTT assay. The experiment is classed as functional, cell-based. The following applies: HCT-15, 48 h.
The subject of experiment [1] is NCI-H460. As to the kind of experiment: Antiproliferative activity against human NCI-H460 cells after 48 hrs by MTT assay. The experiment is classed as functional, cell-based. The following applies: NCI-H460, 48 h.
A short description of experiment [2]: Antiproliferative activity against human U87 cells after 48 hrs by MTT assay. The experiment is classed as functional, cell-based, U-87MG ATCC. The following applies: U-87 MG.
In the next experiment the test system is DU-145. As to the kind of experiment: Antiproliferative activity against human DU145 cells after 48 hrs by MTT assay. The experiment is classed as functional, cell-based. The following applies: DU-145, 48 h.
Another experiment relates to PC-3. As to the kind of experiment: Antiproliferative activity against human PC3 cells after 48 hrs by MTT assay. The class given is functional, cell-based. The following applies: PC-3, 48 h.
A further experiment concerns A549. As to the kind of experiment: Antiproliferative activity against human A549 cells after 48 hrs by MTT assay. The experiment is classed as functional, cell-based. The following applies: A549, 48 h.
Experiment [3] deals with NCI-H460. As to the kind of experiment: Induction of morphological changes in human NCI-H460 cells assessed as […] deformation at 1.25 to 5 uM after 48 hrs by phase contrast microscopic analysis. The experiment is classed as functional, cell-based.
Experiment [4] has as its system NCI-H460. The experiment can be described thus: Induction of morphological changes in human NCI-H460 cells assessed as cell shrinkage at 1.25 to 5 uM after 48 hrs by phase contrast microscopic analysis. The class given is functional, cell-based.
In experiment [5] the test system is NCI-H460. The experiment can be described thus: Induction of apoptosis in human NCI-H460 cells assessed as reduction in viable cells at 1.25 to 5 uM after 48 hrs by phase contrast microscopic analysis. The class given is functional, cell-based.
In experiment [6] the test system is NCI-H460. As to the kind of experiment: Induction of apoptosis in human NCI-H460 cells assessed as horse-shoe shaped nuclei at 2.5 to 10 uM after 24 hrs by DAPI staining-based fluorescence microscopic analysis. The experiment is classed as functional, cell-based.
The subject of experiment [7] is NCI-H460. As to the kind of experiment: Induction of reactive oxygen species generation in human NCI-H460 cells after 6 hrs by DCFDA staining-based method. The class given is functional, cell-based.
For experiment [8], the system named is NCI-H460. As to the kind of experiment: Induction of reactive oxygen species generation in human NCI-H460 cells after 6 hrs in presence of NAC by DCFDA staining-based method. The class given is functional, cell-based.
Experiment [9] can be described thus: Inhibition of porcine brain tubulin polymerization after 1 hr in presence of GTP by fluorescence assay. Details: species or system Sus scrofa.
The subject of experiment [10] is NCI-H460. As to the kind of experiment: Cell cycle arrest in human NCI-H460 cells assessed as accumulation at G0/G1 phase at 1.25 uM after 24 hrs by propidium iodide staining-based flow cytometry (reference value: 49.17%). The experiment is classed as functional. Background: Flow cytometry measures light scatter and fluorescence of single cells or particles in a stream.

Experiment [11] has as its system NCI-H460. The experiment can be described thus: Cell cycle arrest in human NCI-H460 cells assessed as accumulation at S phase at 1.25 uM after 24 hrs by propidium iodide staining-based flow cytometry (reference value: 15.55%). The experiment is classed as functional.
Experiment [12] has as its system NCI-H460. The experiment can be described thus: Cell cycle arrest in human NCI-H460 cells assessed as accumulation at G2/M phase at 1.25 uM after 24 hrs by propidium iodide staining-based flow cytometry (reference value: 34.71%). The class given is functional.
Experiment [13] relates to NCI-H460. As to the kind of experiment: Cell cycle arrest in human NCI-H460 cells assessed as accumulation at G0/G1 phase at 2.5 uM after 24 hrs by propidium iodide staining-based flow cytometry (reference value: 49.17%). The class given is functional.
Experiment [14] deals with NCI-H460. As to the kind of experiment: Cell cycle arrest in human NCI-H460 cells assessed as accumulation at S phase at 2.5 uM after 24 hrs by propidium iodide staining-based flow cytometry (reference value: 15.55%). The class given is functional.
The test system of experiment [15] is NCI-H460. As to the kind of experiment: Cell cycle arrest in human NCI-H460 cells assessed as accumulation at G2/M phase at 2.5 uM after 24 hrs by propidium iodide staining-based flow cytometry (reference value: 34.71%). The experiment is classed as functional.
The test system of experiment [16] is NCI-H460. The experiment can be described thus: Cell cycle arrest in human NCI-H460 cells assessed as accumulation at G0/G1 phase at 5 uM after 24 hrs by propidium iodide staining-based flow cytometry (reference value: 49.17%). The experiment is classed as functional.
Experiment [17] deals with NCI-H460. The experiment can be described thus: Cell cycle arrest in human NCI-H460 cells assessed as accumulation at S phase at 5 uM after 24 hrs by propidium iodide staining-based flow cytometry (reference value: 15.55%). The experiment is classed as functional.
In experiment [18] the test system is NCI-H460. As to the kind of experiment: Cell cycle arrest in human NCI-H460 cells assessed as accumulation at G2/M phase at 5 uM after 24 hrs by propidium iodide staining-based flow cytometry (reference value: 34.71%). The class given is functional.

Molecules are shown by their SMILES. pIC50: −log10 of the molar value. The source made the active and inactive calls. No cut-off for these calls is given here.

Usually pIC50 stands for the IC50 on a negative log10 scale, so that one unit is a factor of ten. On to `COc1ccc(C(=O)/C=C/c2ccc(OCCCN3CCCCC3)c(OC)c2)cc1`, for which the negative-log IC50 (pIC50) in the experiment with HCT-116 is 5.76; in the experiment on HCT-15, 5.27; in the experiment on NCI-H460 [1] it was 5.83; in experiment [2], 5.20; with DU-145 it was 5.29; in the experiment on PC-3, 5.02. Also, the pIC50 in the experiment with A549 is 5.48; in experiment [9], 5.02. Also, the outcome in the experiment with NCI-H460 [3], with NCI-H460 [4], in the experiment on NCI-H460 [5] and in the experiment on NCI-H460 [6] was Active. Moreover, the Activity entry with NCI-H460 [7] is “Dose-dependent effect”; in the experiment with NCI-H460 [10], 47.5%; in the experiment on NCI-H460 [11], 12.21%; with NCI-H460 [12], 39.3%; in the experiment on NCI-H460 [13] it was 46.74%; in the experiment on NCI-H460 [14] it was 9.3%. Also, the Activity in the experiment with NCI-H460 [15] stood at 42.88%; in the experiment with NCI-H460 [16] it was 42.8%; with NCI-H460 [17], 8.12%; with NCI-H460 [18], 48.85%. The outcome in the experiment on NCI-H460 [8] was inactive.
